From patent publication US5081149A, “Antihepatopathic method” (Senju Pharmaceutical Co., Ltd., priority 1989, dated 1992)

Experiments:
[1] = test system: acetaminophen-induced hepatopathy; assay: Effects of DCE-GS on acetaminophen-induced hepatopathy in rats; assay type: in vivo, SD-strain male rats; conditions: for LDH (lactate dehydrogenase) / s-GOT / s-GPT / s-TG (serum triglyceride): 1 h before acetaminophen 300 mg/kg i.p., blood at 24 h, mean ± standard error (n = 6 to 8)
Protocol: After 24 hours of fasting, SD-strain male rats weighing 180 g were orally given 200, 400 or 800 mg/kg of S-(α, β-dicarboxyethyl)glutathione (hereinafter referred to as "DCE-GS" for short). A control group was given physiological saline. An hour later, 300 mg/kg acetaminophen was intraperitoneally administered to each rat for causing hepatopathy. Twenty-four hours after acetaminophen administration,blood samples were collected from the rats under pentobarbital anesthesia via the abdominal aorta and subjected to blood biochemistry tests.

blood coagulation = conditions: Kokai No. 63-8337 and Japanese Patent Applications Nos. 1-79956 and 1-183484; cited from earlier work
platelet aggregation = conditions: Kokai No. 63-8337 and Japanese Patent Applications Nos. 1-79956 and 1-183484; cited from earlier work
[2] = Kokai No. 63-8337 and Japanese Patent Applications Nos. 1-79956 and 1-183484; cited from earlier work
[3] = 400 mg/kg oral, *p < 0.05 vs saline
[4] = 800 mg/kg oral, *p < 0.05 vs saline

N[C@@H](CCC(=O)N[C@@H](CSC(CC(=O)O)C(=O)O)C(=O)NCC(=O)O)C(=O)O (stereo partly drawn) [DCE-GS, S-(α, β-Dicarboxyethyl)glutathione]
LDH (lactate dehydrogenase) ([1]; 200 mg/kg oral): 6029 ± 485 Wrobrewski units | s-GOT ([1]; 200 mg/kg oral): 1221 ± 179 IU/liter | s-GPT ([1]; 200 mg/kg oral): 499 ± 66 IU/liter | s-TG (serum triglyceride) ([1]; 200 mg/kg oral): 28.8 ± 5.0 mg/dL | s-TG (serum triglyceride) ([1]; 400 mg/kg oral): 36.1 ± 7.6 mg/dL | LDH (lactate dehydrogenase) [1, 3]: 4873 ± 973 Wrobrewski units | s-GOT [1, 3]: 677 ± 219 IU/liter | s-GPT [1, 3]: 262 ± 89 IU/liter | LDH (lactate dehydrogenase) [1, 4]: 3722 ± 595 Wrobrewski units | s-GOT [1, 4]: 438 ± 131 IU/liter | s-GPT [1, 4]: 133 ± 39 IU/liter | s-TG (serum triglyceride) [1, 4]: 53.9 ± 10.4 mg/dL | effect on acetaminophen-induced changes in s-GOT, s-GPT, s-LDH and s-TG ([1]; 200, 400 or 800 mg/kg oral): dose-dependently suppressed the increases in s-GOT, s-GPT and s-LDH as well as the decrease in s-TG | blood coagulation inhibiting activity (blood coagulation): blood coagulation inhibiting | platelet aggregation inhibiting activity (platelet aggregation): platelet aggregation inhibiting | antiinflammatory and/or antiallergic activity [2]: antiinflammatory and/or antiallergic activity
